Active and inactive are the calls of the source. The calls are words filed in the database; no cut-off is given here.
Legend:
[1] = system: KYSE-150 cell line; experiment: Antiproliferative activity against human KYSE-150 cell line assessed as inhibition of cell growth incubated for 48 hrs by CCK-8 reagent based spectrophotometric analysis; format: functional; settings: KYSE-150, 48 h
[2] = system: HeLa; experiment: Antiproliferative activity against human HeLa cells assessed as inhibition of cell growth incubated for 48 hrs by CCK-8 reagent based spectrophotometric analysis; format: functional
[3] = system: HepG2; experiment: Antiproliferative activity against human HepG2 cells assessed as inhibition of cell growth incubated for 48 hrs by CCK-8 reagent based spectrophotometric analysis; format: functional; settings: HepG2, 48 h
[4] = system: SMMC-7721; experiment: Antiproliferative activity against human SMMC-7721 cells assessed as inhibition of cell growth incubated for 48 hrs by CCK-8 reagent based spectrophotometric analysis; format: functional; settings: SMMC-7721, 48 h
[5] = system: MCF7; experiment: Antiproliferative activity against human MCF7 cells assessed as inhibition of cell growth incubated for 48 hrs by CCK-8 reagent based spectrophotometric analysis; format: functional; settings: MCF7, 48 h
[6] = system: PC-3; experiment: Antiproliferative activity against human PC-3 cells assessed as inhibition of cell growth incubated for 48 hrs by CCK-8 reagent based spectrophotometric analysis; format: functional; settings: PC-3, 48 h
[7] = system: SW-620; experiment: Antiproliferative activity against human SW620 cells assessed as inhibition of cell growth incubated for 48 hrs by CCK-8 reagent based spectrophotometric analysis; format: functional; settings: SW-620, 48 h
[8] = system: SMMC-7721; experiment: Induction of apoptosis in human SMMC-7721 cells assessed as viable cells at 5 uM incubated for 24 hrs by Annexin V-FITC and propidium iodide staining based flow cytometric analysis (reference value: 99 %); format: functional; settings: read-out: Activity
[9] = system: SMMC-7721; experiment: Induction of apoptosis in human SMMC-7721 cells assessed as viable cells at 10 uM incubated for 24 hrs by Annexin V-FITC and propidium iodide staining based flow cytometric analysis (reference value: 99 %); format: functional; settings: read-out: Activity
[10] = system: SMMC-7721; experiment: Induction of apoptosis in human SMMC-7721 cells assessed as early apoptotic cells at 5 uM incubated for 24 hrs by Annexin V-FITC and propidium iodide staining based flow cytometric analysis (reference value: 0.28 %); format: functional
[11] = system: SMMC-7721; experiment: Induction of apoptosis in human SMMC-7721 cells assessed as early apoptotic cells at 10 uM incubated for 24 hrs by Annexin V-FITC and propidium iodide staining based flow cytometric analysis (reference value: 0.28 %); format: functional
[12] = system: SMMC-7721; experiment: Induction of apoptosis in human SMMC-7721 cells assessed as early apoptotic cells at 20 uM incubated for 24 hrs by Annexin V-FITC and propidium iodide staining based flow cytometric analysis (reference value: 0.28 %); format: functional
[13] = system: SMMC-7721; experiment: Induction of apoptosis in human SMMC-7721 cells assessed as necrotic cells at 10 uM incubated for 24 hrs by Annexin V-FITC and propidium iodide staining based flow cytometric analysis (reference value: 0.61 %); format: functional
[14] = system: SMMC-7721; experiment: Induction of apoptosis in human SMMC-7721 cells assessed as late apoptotic cells at 5 uM incubated for 24 hrs by Annexin V-FITC and propidium iodide staining based flow cytometric analysis (reference value: 0.14 %); format: functional
[15] = system: SMMC-7721; experiment: Induction of apoptosis in human SMMC-7721 cells assessed as late apoptotic cells at 10 uM incubated for 24 hrs by Annexin V-FITC and propidium iodide staining based flow cytometric analysis (reference value: 0.14 %); format: functional
[16] = system: SMMC-7721; experiment: Induction of apoptosis in human SMMC-7721 cells assessed as late apoptotic cells at 20 uM incubated for 24 hrs by Annexin V-FITC and propidium iodide staining based flow cytometric analysis (reference value: 0.14 %); format: functional
[17] = system: SMMC-7721; experiment: Induction of apoptosis in human SMMC-7721 cells assessed as necrotic cells at 20 uM incubated for 24 hrs by Annexin V-FITC and propidium iodide staining based flow cytometric analysis (reference value: 0.61 %); format: functional
[18] = system: SMMC-7721; experiment: Induction of apoptosis in human SMMC-7721 cells assessed as viable cells at 15 uM incubated for 24 hrs in presence of 3-MA by Annexin V-FITC and propidium iodide staining based flow cytometric analysis (reference value: 99.2 %); format: functional; settings: read-out: Activity
[19] = system: SMMC-7721; experiment: Induction of apoptosis in human SMMC-7721 cells assessed as viable cells at 15 uM incubated for 24 hrs in presence of zVAD by Annexin V-FITC and propidium iodide staining based flow cytometric analysis (reference value: 99.2 %); format: functional; settings: read-out: Activity
[20] = system: SMMC-7721; experiment: Induction of apoptosis in human SMMC-7721 cells assessed as viable cells at 15 uM incubated for 24 hrs in presence of Nec1 by Annexin V-FITC and propidium iodide staining based flow cytometric analysis (reference value: 99.2 %); format: functional; settings: read-out: Activity
[21] = system: SMMC-7721; experiment: Induction of apoptosis in human SMMC-7721 cells assessed as early apoptotic cells at 15 uM incubated for 24 hrs in presence of Nec1 by Annexin V-FITC and propidium iodide staining based flow cytometric analysis (reference value: 0.07 %); format: functional
[22] = system: SMMC-7721; experiment: Induction of apoptosis in human SMMC-7721 cells assessed as late apoptotic cells at 15 uM incubated for 24 hrs in presence of 3-MA by Annexin V-FITC and propidium iodide staining based flow cytometric analysis (reference value: 0.09 %); format: functional
[23] = system: SMMC-7721; experiment: Induction of apoptosis in human SMMC-7721 cells assessed as late apoptotic cells at 15 uM incubated for 24 hrs in presence of Nec1 by Annexin V-FITC and propidium iodide staining based flow cytometric analysis (reference value: 0.09 %); format: functional
[24] = system: SMMC-7721; experiment: Induction of apoptosis in human SMMC-7721 cells assessed as necrotic cells at 15 uM incubated for 24 hrs by Annexin V-FITC and propidium iodide staining based flow cytometric analysis (reference value: 0.65 %); format: functional
[25] = system: SMMC-7721; experiment: Induction of apoptosis in human SMMC-7721 cells assessed as necrotic cells at 15 uM incubated for 24 hrs in presence of 3-MA by Annexin V-FITC and propidium iodide staining based flow cytometric analysis (reference value: 0.65 %); format: functional
[26] = system: SMMC-7721; experiment: Induction of apoptosis in human SMMC-7721 cells assessed as necrotic cells at 15 uM incubated for 24 hrs in presence of Nec1 by Annexin V-FITC and propidium iodide staining based flow cytometric analysis (reference value: 0.65 %); format: functional
[27] = system: SMMC-7721; experiment: Induction of apoptosis in human SMMC-7721 cells at 10 uM incubated for 24 hrs by Annexin V-FITC and propidium iodide staining based flow cytometric analysis relative to control; format: functional
[28] = system: SMMC-7721; experiment: Induction of apoptosis in human SMMC-7721 cells at 20 uM incubated for 24 hrs by Annexin V-FITC and propidium iodide staining based flow cytometric analysis relative to control; format: functional
[29] = system: SMMC-7721; experiment: Induction of autophagy in human SMMC-7721 cells assessed as cell structure destruction at 10 uM incubated for 24 hrs by TEM analysis; format: functional, cell-based
[30] = system: SMMC-7721; experiment: Induction of autophagy in human SMMC-7721 cells assessed as appearance of sparse matrix at 10 uM incubated for 24 hrs by TEM analysis; format: functional, cell-based
[31] = system: SMMC-7721; experiment: Induction of autophagy in human SMMC-7721 cells assessed as formation of autolysosomes at 10 uM incubated for 24 hrs by TEM analysis; format: functional, cell-based
[32] = system: SMMC-7721; experiment: Induction of autophagy in human SMMC-7721 cells assessed as formation of autophagosome at 10 uM incubated for 24 hrs by TEM analysis; format: functional, cell-based

SMILES	IC50 [1]	IC50 [2]	IC50 [3]	IC50 [4]	IC50 [5]	IC50 [6]	IC50 [7]	viability at 5 µM [8]	viability at 10 µM [9]	Activity [10]	Activity [11]	Activity [12]	Activity [13]	Activity [14]	Activity [15]	Activity [16]	Activity [17]	viability at 15 µM [18]	viability at 15 µM [19]	viability at 15 µM [20]	also measured
C=C(C)[C@@H]1CC[C@]2(C(=O)OC)CC[C@]3(C)[C@H](CC[C@@H]4[C@@]5(C)C[C@@H](Cc6cn([C@]7(CO)O[C@@H](n8ccc(O)nc8=O)[C@@H](F)[C@@H]7O)nn6)C(=O)C(C)(C)[C@@H]5CC[C@]43C)[C@@H]12	10.6 µM	11.8 µM	23.7 µM	7.73 µM	18.6 µM	22.9 µM	10.9 µM	99%	96.2%	0.13%	0.35%	0.43%	2.69%	0.16%	0.78%	17.5%	19.8%	86.2%	82%	87.4%	Activity [21]: 0.23%; Activity [22]: 2.54%; Activity [23]: 9.13%; Activity [24]: 15.7%; Activity [25]: 11.2%; Activity [26]: 3.24%; Activity [27]: 0.42%; Activity [28]: 0.42%; Activity [29]: Active; Activity [30]: Active; Activity [31]: Active; Activity [32]: Active
C=C(C)[C@@H]1CC[C@]2(C(=O)OC)CC[C@]3(C)[C@H](CC[C@@H]4[C@@]5(C)C[C@@H](Cc6cn([C@H]7C[C@H](n8cc(C)c(O)nc8=O)O[C@@H]7CO)nn6)C(=O)C(C)(C)[C@@H]5CC[C@]43C)[C@@H]12	5.68 µM	6.07 µM	9.55 µM	5.02 µM	9.78 µM	10.1 µM	4.61 µM	98.4%	91.7%	0.24%	0.48%	0.089%	1.48%	0.77%	6.31%	18.9%	23%	91.6%	87.9%	83.6%	Activity [21]: 0.19%; Activity [22]: 6.4%; Activity [23]: 10.8%; Activity [24]: 16.6%; Activity [25]: 1.77%; Activity [26]: 5.17%; Activity [27]: 0.54%; Activity [28]: 0.54%; Activity [29]: Active; Activity [30]: Active; Activity [31]: Active; Activity [32]: Active
